Experimental data reported in PMC5690597, “Suppression and resolution of autoimmune arthritis by rhesus θ-defensin-1, an immunomodulatory macrocyclic peptide” (PLoS ONE, 2017).
Bridge positions count the residues as written; N and C are the ends. Peptide text beside a SMILES is read from it.

Assays:
MMP-1 = MMP-1 (Homo sapiens, UniProt P03956); assay: biochemical
Method: (§1) Inhibition of MMPs by RTD-1 was performed as described, incubating each enzyme with 0–100 μg/ml of RTD-1. IC50 values were calculated by GraphPad Prism 5.01 (GraphPad Software, San Diego, CA) utilizing a non-linear curve fit of log [inhibitor] versus response with variable slope.

MMP-13 = MMP-13 (Homo sapiens, UniProt P45452); assay: biochemical
Method: as §1

MMP-14 = MMP-14 (Homo sapiens, UniProt P50281); assay: biochemical
Method: as §1

MMP-2 = MMP-2 (Homo sapiens, UniProt P08253); assay: biochemical
Chain of MMP-2 (P08253 110-660, species assumed): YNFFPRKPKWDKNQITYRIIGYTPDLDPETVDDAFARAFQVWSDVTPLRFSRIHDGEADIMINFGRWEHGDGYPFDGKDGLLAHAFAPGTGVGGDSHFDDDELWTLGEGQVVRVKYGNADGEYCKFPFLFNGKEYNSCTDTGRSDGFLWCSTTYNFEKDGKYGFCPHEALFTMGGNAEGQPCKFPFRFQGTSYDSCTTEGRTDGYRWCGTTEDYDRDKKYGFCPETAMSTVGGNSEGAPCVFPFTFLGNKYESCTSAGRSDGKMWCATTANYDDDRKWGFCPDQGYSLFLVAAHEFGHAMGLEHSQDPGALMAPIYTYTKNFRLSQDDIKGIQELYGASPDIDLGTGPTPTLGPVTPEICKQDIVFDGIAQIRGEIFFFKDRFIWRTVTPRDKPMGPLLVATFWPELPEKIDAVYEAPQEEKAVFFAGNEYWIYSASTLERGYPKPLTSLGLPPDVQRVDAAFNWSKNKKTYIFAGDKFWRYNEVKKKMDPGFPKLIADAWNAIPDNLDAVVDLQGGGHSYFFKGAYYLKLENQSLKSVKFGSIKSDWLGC
Method: as §1

MMP-3 = MMP-3 (Homo sapiens, UniProt P08254); assay: biochemical
Chain of MMP-3 (P08254 100-477, species assumed): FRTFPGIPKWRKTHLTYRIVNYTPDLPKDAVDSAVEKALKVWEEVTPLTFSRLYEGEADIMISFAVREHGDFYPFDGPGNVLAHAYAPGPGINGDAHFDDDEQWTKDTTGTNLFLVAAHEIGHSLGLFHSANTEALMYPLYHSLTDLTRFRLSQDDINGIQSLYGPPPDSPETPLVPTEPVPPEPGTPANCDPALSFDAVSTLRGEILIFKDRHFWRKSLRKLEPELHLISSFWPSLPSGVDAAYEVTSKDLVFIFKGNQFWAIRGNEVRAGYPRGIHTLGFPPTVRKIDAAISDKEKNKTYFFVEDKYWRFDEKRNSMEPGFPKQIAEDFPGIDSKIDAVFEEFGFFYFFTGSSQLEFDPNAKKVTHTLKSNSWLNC
Method: as §1

MMP-8 = MMP-8 (Homo sapiens, UniProt P22894); assay: biochemical
Chain of MMP-8 (P22894 101-467, species assumed): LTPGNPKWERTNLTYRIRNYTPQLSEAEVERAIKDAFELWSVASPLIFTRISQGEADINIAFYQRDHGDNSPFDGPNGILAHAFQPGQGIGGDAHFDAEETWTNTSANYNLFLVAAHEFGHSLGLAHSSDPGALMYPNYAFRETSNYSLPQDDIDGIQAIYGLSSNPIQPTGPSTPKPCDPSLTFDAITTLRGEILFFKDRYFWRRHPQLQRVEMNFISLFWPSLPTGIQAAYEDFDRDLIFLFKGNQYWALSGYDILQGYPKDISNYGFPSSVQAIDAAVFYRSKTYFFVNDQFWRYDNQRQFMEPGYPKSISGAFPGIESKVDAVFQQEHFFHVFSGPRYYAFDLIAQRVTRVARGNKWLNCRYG
Method: as §1

MMP-9 = MMP-9 (Homo sapiens, UniProt P14780); assay: biochemical
Chain of MMP-9 (P14780 94-707, species assumed): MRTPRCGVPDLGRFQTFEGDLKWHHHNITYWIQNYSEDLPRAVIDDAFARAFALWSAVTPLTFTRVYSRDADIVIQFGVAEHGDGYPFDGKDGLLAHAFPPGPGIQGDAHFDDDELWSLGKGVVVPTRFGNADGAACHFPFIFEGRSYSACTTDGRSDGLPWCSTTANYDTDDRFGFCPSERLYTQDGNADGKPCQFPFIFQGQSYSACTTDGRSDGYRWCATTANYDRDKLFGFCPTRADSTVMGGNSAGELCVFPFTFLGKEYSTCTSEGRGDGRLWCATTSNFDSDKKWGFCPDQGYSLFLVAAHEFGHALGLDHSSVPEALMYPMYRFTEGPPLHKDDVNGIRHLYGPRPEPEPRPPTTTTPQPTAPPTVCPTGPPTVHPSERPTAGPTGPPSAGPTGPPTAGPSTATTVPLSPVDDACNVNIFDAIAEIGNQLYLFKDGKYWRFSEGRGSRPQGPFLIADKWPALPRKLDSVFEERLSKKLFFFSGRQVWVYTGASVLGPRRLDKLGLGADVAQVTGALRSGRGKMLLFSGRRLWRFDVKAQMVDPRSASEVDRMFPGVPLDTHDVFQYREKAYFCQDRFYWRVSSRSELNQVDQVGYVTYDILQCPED
Method: as §1

[1] = tested on: DA/OlaHsd rats with pristane-induced arthritis; assay: Pristane-induced arthritis (PIA), established disease (AS ≥ 3); format: in vivo, rat
Method: Female DA/OlaHsd (D blood group allele and Agouti, also known as Dark Agouti), rats were obtained from Harlan Laboratories (Indianapolis, IN). Animals were allowed to acclimate for 48–72 hours prior to experimental use. Animals were fed standard chow ad lib during a 12-hour day/night cycle. PIA was induced in 5–7 week old animals (90–100 gm) by intradermal injection of 250 μl pristane (Sigma) divided into 3–5 sites at the base of the tail. Animals were monitored daily and disease severity of each limb was scored 0–4 using the method of Brand et al.. The severity scores for all limbs of individual animals were totaled to give an individual’s arthritis severity score (AS) ranging from zero for normal animals to maximum disease score of sixteen. […] In three separate trials, treatment was also blinded to scorers. […] Treatment with saline (vehicle), RTD-1, or anti-arthritic agents was randomized and initiated when an animal first presented with an AS of 3 or more. RTD-1 was administered subcutaneously with doses ranging from 0.2 to 5.0 mg/kg in an injection volume of 0.5 ml at intervals ranging from once a day (qd) to once every seven days (q7d). MTX was administered at 0.25 mg/kg by intraperitoneal injection q3d. Etanercept was administered at 0.4 mg/kg by subcutaneous injection q3d.

in vivo = conditions: plasma
Method: Eight to 12-week old male Sprague Dawley rats (Harlan) were fitted with a surgically implanted jugular vein catheter for sequential blood collection (Culex NxT Automated In Vivo Sampling System; BASi, West Lafayette, IN), and monitored daily. RTD-1 dissolved in saline was injected subcutaneously at 5 mg/kg to 4 animals. Approximately 200 μl of blood was collected before peptide administration and at 0.25, 0.5, 1, 2, 4, 6, 8, 12, 18, 24, 30, 36, 48, 60, and 72 h after RTD-1 injection. Blood was collected into vials containing K3EDTA and plasma was collected after centrifugation. Plasma concentrations of RTD-1 were determined after solid phase extraction (SPE) by weak cation exchange (Oasis WCX, Waters, Milford, MA) and quantitation by C18 RP-UPLC, photodiode array (PDA) detection, and electrospray-ionization mass spectrometry (ESI-MS). Chromatography was performed on an Acquity H-class UPLC with an analytical PDA detector using Empower 3 software (Waters). Quantitative mass spectrometry was performed on post PDA eluent using a Micromass Quattro Ultima mass spectrometer with MassLynx 4.1 (Waters). Pharmacokinetic analysis was performed using parametric population modeling with maximum likelihood estimation via the EM algorithm with sampling (MLEM) as implemented in the ADAPT 5 (Version 5.0.49) PK/PD Systems Analysis Software (Biomedical Simulations Resource, University of Southern California).

joint IL-1β = assay: Joint tissue cytokine analysis (IL-1β ELISA); format: in vivo, rat; conditions: 5 mg/kg s.c. once a day for four days, PIA rats AS ≥ 3; ELISA of joint extract; P = 0.0054
Method: Saline (control) and RTD-1 (5 mg/kg, s.c., qd) treated PIA rats were euthanized 4 days after disease onset (AS ≥ 3). The ankle joints and feet were snap frozen in liquid N2 and pulverized with mortar and pestle as described. One gram of tissue powder was extracted with 5 ml of ice cold 10 mM sodium phosphate, 150 mM NaCl, pH 7.4 (PBS) containing protease inhibitor tablets (cOmplete ULTRA with EDTA; Roche Diagnostics GmbH, Mannheim, Germany). Samples were vortexed for 30 seconds and extracts clarified by centrifugation. Supernatant IL-1β was quantified by ELISA (Life Technologies, Grand Island, NY).

FLS = conditions: RTD-1 0–30 μg/ml; all samples; LDH release
Method: FLS were seeded at 3 × 10^3 cells/well in a 96-well TC treated plate (Greiner). Cells were allowed to adhere for 18 h and medium was replaced prior to addition of peptide or vehicle. RTD-1 was added to wells at final concentrations of 0–30 μg/ml in culture medium and incubated for 0, 24, or 48 h at 37°C in 5% CO2. FLS cell number was determined by DNA staining using CyQuant Cell Proliferation Assay Kit (Invitrogen) per manufacturer’s instructions. Cellular toxicity was determined by measuring the release of lactate dehydrogenase (LDH) using a CytoTox 96 Cytotoxicity Assay (Promega Bio Sciences, San Luis Obispo, CA) in FLS supernatants. All assays were performed with ≥ 7 replicates.

[2] = no method or data given
[3] = administered subcutaneously; this study and ref 9
[4] = male, Sprague Dawley, rat, sc, 5 mg/kg
[5] = single 5 mg/kg s.c., male Sprague Dawley rats, n = 4, SPE, RP-UPLC/ESI-MS, 2-compartment population model

Chain of MMP-1 (P03956 100-469, species assumed): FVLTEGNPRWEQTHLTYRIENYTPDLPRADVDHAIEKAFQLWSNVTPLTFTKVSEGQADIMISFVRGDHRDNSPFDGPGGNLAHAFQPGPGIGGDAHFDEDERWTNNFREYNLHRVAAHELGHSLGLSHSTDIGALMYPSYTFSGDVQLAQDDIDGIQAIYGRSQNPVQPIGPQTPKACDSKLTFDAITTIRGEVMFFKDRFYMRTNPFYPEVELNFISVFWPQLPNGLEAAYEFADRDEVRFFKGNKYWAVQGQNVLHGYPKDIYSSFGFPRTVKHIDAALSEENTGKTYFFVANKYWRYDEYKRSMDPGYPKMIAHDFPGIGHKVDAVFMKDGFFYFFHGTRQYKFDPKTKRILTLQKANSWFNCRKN

Compound: CC[C@H](C)[C@@H]1NC(=O)[C@@H]2CSSC[C@H](NC(=O)[C@H](CCCNC(=N)N)NC(=O)[C@@H]3CSSC[C@H](NC1=O)C(=O)N[C@@H]([C@@H](C)O)C(=O)N[C@@H](CCCNC(=N)N)C(=O)NCC(=O)N[C@@H](Cc1ccccc1)C(=O)N3)C(=O)N[C@@H](CC(C)C)C(=O)N[C@H]1CSSC[C@H](NC(=O)[C@H](C(C)C)NC(=O)CNC(=O)[C@H](CCCNC(=N)N)NC(=O)[C@H](CCCNC(=N)N)NC1=O)C(=O)N[C@@H](CCCNC(=N)N)C(=O)N2 [RTD-1, rhesus θ-defensin 1] (cyclo(GFCRCLCRRGVCRCICTR); disulfide 3-16, 5-14, 7-12)
- IC50 (MMP-1): > 50 µM
- IC50 (MMP-13): 11 ± 0.4 µM
- IC50 (MMP-14): 7.8 ± 0.3 µM
- IC50 (MMP-2): 19.6 ± 0.04 µM
- IC50 (MMP-3): > 50 µM
- IC50 (MMP-8): 12 ± 0.05 µM
- IC50 (MMP-9): 11.1 ± 0.2 µM
- complete resolution of disease (AS = 0), share of animals ([1]; 5 mg/kg s.c. daily for 11 days, 9 of 31 animals, saline 2.5% (1 of 40)): 29%
- reduction of mean arthritis severity score (AS) at the end of the observation period compared with vehicle controls ([1]; 5 mg/kg s.c. daily for 11 days, DA rats with PIA, AS ≥ 3 at start, 6 independent experiments): 69%
- disease resolution by dosing interval ([1]; 5 mg/kg s.c. daily, or once every 2, 3, or 5 days, n = 5 per group, single experiment): equivalent disease resolution
- rate of complete disease resolution on day 11, comparison with RA drugs ([1]; RTD-1 s.c. (4 of 16), MTX 0.25 mg/kg i.p. q3d (1 of 22), etanercept 0.4 mg/kg s.c. q3d (0 of 21), saline 0 of 19, 2 independent experiments): 25%
- therapeutic effect on AS compared to vehicle control ([1]; daily s.c. 0.2 mg/kg): no therapeutic effect
- reduction in AS compared to vehicle control ([1]; daily s.c. 1 mg/kg): modest, but not statistically significant reductions in AS
- reduction in AS compared to vehicle control by treatment day 3 ([1]; daily s.c. 3 or 5 mg/kg, 2 independent experiments): significant (P ≤ 0.0015) and similar reductions in AS
- clearance (in vivo; [4]): 3.55 mL/h/kg
- half-life (in vivo; [4]): 32.3 h
- distribution clearance (in vivo; [5]): 22.3 mL/h/kg
- distribution half-life (in vivo; [5]): 0.285 h
- average reduction of joint IL-1β vs vehicle (joint IL-1β): 44%
- cell viability in proliferation assay (FLS): ≥ 98%
- stability in rat plasma [2]: highly stable
- tolerability [3]: well tolerated
